Test results published in patent US6903132B2, “Non-peptide GnRH agents, pharmaceutical compositions and methods for their use” (Agouron Pharmaceuticals, Inc., priority 2002, dated 2005).

Experiment: In vitro metabolism: disappearance of parent compound in liver microsomes (female rat)
Type: in vitro ADME
Conditions: 5 uM compound, 0.5 mg/ml microsomal protein, 2 mM NADPH, 30 minutes at 37° C.
Description: Human, rat, dog, and monkey liver microsomes are isolated by differential centrifugation. Specimens of human liver were obtained from the International Institute for the Advancement of Medicine (Scranton, Pa.). The disappearance of the parent compound is studied in a mixture containing 5 uM compound, 0.5 mg/ml microsomal protein, and 2 mM NADPH in 50 mM K Phosphate buffer, pH 7.4. Samples are incubated for 30 minutes at 37° C. The reaction is terminated by the addition of acetonitrile and compounds analyzed by LC-MS as described above.

Fem. t % rem. 30′: 18%
Structure (SMILES): COc1cc2c(cc1Cc1ccc(C(=O)NNc3cc(C)c4c(C)nn(C)c4n3)o1)C(C)(C)CCC2(C)C [Example C2, 5-[(3-Methoxy-5,5,8,8-tetramethyl-5,6,7,8-tetrahydro-2-naphthalenyl)methyl]-N′-(1,3,4-trimethyl-1H-pyrazolo[3,4-b]pyridin-6-yl)-2-furohydrazide]
